Data published in patent US20050048596A1, “Assay for detecting changes in mitochondrial membrane permeability and method of using same” (priority 2003, published 2005).

What was measured:
MPT pore [1] = assay: Calcium-induced swelling of isolated liver mitochondria, light scattering at 540 nm; assay type: biochemical, rat; details: BA 20 μM; calcium 100 μM; no enzymes in medium; FIG. 6
From the text: FIG. 6 illustrates calcium-induced swelling of mitochondria isolated from whole liver. The swelling is detected by recording the light scattering of mitochondrial suspension at 540 nm. Experimental conditions are the same as described in FIG. 5, except no enzymes were present in the medium.
The opening of the MPT pore leads to osmotic swelling of mitochondria, which can be detected as decreased light scattering. […] However, a more significant and progressive decrease in light scattering starting at about 300 sec. following the initial calcium pulse occurred.
Male Wistar rats weighing about 300 g were used for isolation of rat liver mitochondria. For examination of calcium-induced release of NAD^+, 0.125 mg/ml of mitochondrial protein were used. The mitochondria were incubated in 2ml of the reaction buffer containing all compounds required for the assay.

MPT pore [2] = assay: Enzymatic assay (ADH/NADH oxidase/HRP/Amplex Red) of calcium-induced pyridine nucleotide release from isolated liver mitochondria, Resorufin fluorescence; assay type: biochemical, rat; details: BA 20 μM; calcium 100 μM; isolated liver mitochondria 0.125 mg/ml protein; FIG. 5
Procedure: FIG. 5 illustrates the recording of fluorescence intensity following calcium additions to isolated liver mitochondria in the assay mixture. Controls; only calcium (100 μM) was added. BA; the same amount of calcium (100 μM) was added to mitochondria incubated in the presence of 20 μM Bongrekig acid.
In one preferred embodiment, the assay for pyridine nucleotides measurement may comprise several enzymatic reactions—cyclic and/or coupled—which use oxidized or reduced form of nicotinamide adenine dinucleotides (NAD^+, NADH, respectively) as substrate, thereby providing a detectable final product (FIG. 1). In the first step shown in FIG. 1, alcohol dehydrogenase (ADH) converts ethanol to acetaldehyde in the presence of NAD^+, which is released from mitochondria and reduced to NADH. In the next reaction NADH oxidase (Ox) oxidizes NADH back to NAD^+, and hydrogen peroxide (H2O2) is produced from water in the process. In the last reaction, horseradish peroxidase (HRP) produces a detectable signal in the presence of hydrogen peroxide. […]
Experiments with isolated liver mitochondria were carried out in the same medium as those without; however, no substrate was added, since respiring mitochondria produce superoxide (O2^−). […] Leakage of H2O2 into the medium is expected to give a increase in fluorescence intensity which is not due to the release of pyridine nucleotides from mitochondria. […]

Structure (SMILES): CO[C@H](C/C=C\C=C\CC/C=C/C[C@H](C)/C=C/C(=C\C(=O)O)CC(=O)O)/C(C)=C\C=C(/C)C(=O)O [BA, Bongkrekic acid]
- calcium-induced swelling of mitochondria (decrease in light scattering at 540 nm) (MPT pore [1]): inhibited
- increase in fluorescence following calcium addition (release of pyridine nucleotides) (MPT pore [2]): blocked
